According to article PMC4303209, “A novel phosphatidylinositol 3-kinase (PI3K) inhibitor directs a potent FOXO-dependent, p53-independent cell cycle arrest phenotype characterized by the differential induction of a subset of FOXO-regulated genes” (Breast Cancer Research : BCR, 2014):

Test system: MCF-7 breast cancer cells
Experiment: Microarray gene expression analysis (Agilent whole human genome 4 x 44K; compound vs DMSO, LIMMA log2 fold change)
Type: cell-based
Details: cell cycle genes

Structure (SMILES): Oc1cccc(-c2nc(N3CCOCC3)c3oc4ncccc4c3n2)c1 [PI-103]
- MLF1 log2FC (Gene 4291): 0.58
- MLH1 log2FC (Gene 4292): 0.34
- MAP3K11 log2FC (Gene 4296): -0.58
- MNAT1 log2FC (Gene 4331): 0.59
- MNT log2FC (Gene 4335): 1.54
- MOS log2FC (Gene 4342): -0.08
- MRE11A log2FC (Gene 4361): 0.27
- MSH2 log2FC (Gene 4436): 0.79
- MSH3 log2FC (Gene 4437): 0.54
- MSH4 log2FC (Gene 4438): -0.0458
- MSX1 log2FC (Gene 4487): -0.24
- MSX2 log2FC (Gene 4488): 0.05
- MUC1 log2FC (Gene 4582): -0.28
- TRIM37 log2FC (Gene 4591): 0.67
- MX2 log2FC (Gene 4600): -0.08
- MYB log2FC (Gene 4602): 0.51
- MYBL2 log2FC (Gene 4605): -0.39
- MYC log2FC (Gene 4609): 0.42
- GADD45B log2FC (Gene 4616): 0.86
- MYH9 log2FC (Gene 4627): -0.23
- MYH10 log2FC (Gene 4628): -0.0425
- PPP1R12A log2FC (Gene 4659): 0.42
- PPP1R12B log2FC (Gene 4660): 0.33
- NUBP1 log2FC (Gene 4682): -0.22
- NBN log2FC (Gene 4683): 0.62
- NEDD9 log2FC (Gene 4739): 0.0368
- NEK1 log2FC (Gene 4750): 0.57
- NEK2 log2FC (Gene 4751): 1.00
- NEUROD1 log2FC (Gene 4760): 0.04
- NGFR log2FC (Gene 4804): -0.07
- NOTCH2 log2FC (Gene 4853): 0.27
- NPAT log2FC (Gene 4863): 0.48
- NPM1 log2FC (Gene 4869): 0.28
- NUP88 log2FC (Gene 4927): 0.08
- ODF2 log2FC (Gene 4957): -0.13
- OSM log2FC (Gene 5008): -0.00804
- OVOL1 log2FC (Gene 5017): -0.06
- PAFAH1B1 log2FC (Gene 5048): 0.72
- PAK1 log2FC (Gene 5058): 0.07
- PAK3 log2FC (Gene 5063): 0.09
- PCM1 log2FC (Gene 5108): 0.63
- PCNT log2FC (Gene 5116): 0.45
- PDGFB log2FC (Gene 5155): -0.24
- PDGFRB log2FC (Gene 5159): 0.0243
- PGGT1B log2FC (Gene 5229): -0.28
- ABCB1 log2FC (Gene 5243): -0.02
- PIK3C3 log2FC (Gene 5289): 1.00
- PIM1 log2FC (Gene 5292): 1.29
- PIN1 log2FC (Gene 5300): -0.0472
- PKD1 log2FC (Gene 5310): 0.37
- PKD2 log2FC (Gene 5311): 0.13
- PKHD1 log2FC (Gene 5314): -0.09
- PLAGL1 log2FC (Gene 5325): 0.32
- PML log2FC (Gene 5371): -0.41
- PMS1 log2FC (Gene 5378): 0.55
- PMS2 log2FC (Gene 5395): 0.12
- POLD1 log2FC (Gene 5424): 0.33
- POLE log2FC (Gene 5426): -0.10
- PPAT log2FC (Gene 5471): 0.07
- PPM1A log2FC (Gene 5494): 0.27
- PPP1CB log2FC (Gene 5500): 0.81
- PPP1CC log2FC (Gene 5501): 0.33
- PPP2R1A log2FC (Gene 5518): 0.06
- PPP2R2A log2FC (Gene 5520): -0.06
- PPP2R4 log2FC (Gene 5524): -0.32
- PPP2R5C log2FC (Gene 5527): 0.78
- PPP3CA log2FC (Gene 5530): 0.45
- PPP5C log2FC (Gene 5536): -0.24
- PPP6C log2FC (Gene 5537): -0.35
- PRCC log2FC (Gene 5546): -0.66
- PRIM1 log2FC (Gene 5557): 0.46
- PRKAA1 log2FC (Gene 5562): 0.30
- PRKAA2 log2FC (Gene 5563): 0.07
- PRKAB1 log2FC (Gene 5564): 0.25
- PRKAB2 log2FC (Gene 5565): 0.81
- PRKACA log2FC (Gene 5566): -0.35
- PKIA log2FC (Gene 5569): -0.29
- PRKAG1 log2FC (Gene 5571): 0.09
- PRKAR1A log2FC (Gene 5573): 0.45
- PRKAR2B log2FC (Gene 5577): 0.43
- PRKCA log2FC (Gene 5578): -0.16
- PRKCD log2FC (Gene 5580): 0.12
- PRKCE log2FC (Gene 5581): -0.00329
- PKN2 log2FC (Gene 5586): 0.51
- MAPK1 log2FC (Gene 5594): 0.0165
- MAPK3 log2FC (Gene 5595): -0.12
- MAPK13 log2FC (Gene 5603): -0.17
- MAP2K1 log2FC (Gene 5604): -0.23
- MAP2K6 log2FC (Gene 5608): 0.36
- PROX1 log2FC (Gene 5629): -0.08
- KLK10 log2FC (Gene 5655): -0.42
- PSMA1 log2FC (Gene 5682): -0.03
- PSMA4 log2FC (Gene 5685): 0.47
- PSMA6 log2FC (Gene 5687): 0.07
- PSMB1 log2FC (Gene 5689): 0.00908
- PSMB2 log2FC (Gene 5690): -0.43
- PSMB3 log2FC (Gene 5691): 0.0534
- PSMB5 log2FC (Gene 5693): -0.22
- PSMB6 log2FC (Gene 5694): -0.08
- PSMB8 log2FC (Gene 5696): -0.00568
- PSMC1 log2FC (Gene 5700): -0.00867
- PSMC2 log2FC (Gene 5701): 0.28
- PSMC5 log2FC (Gene 5705): -0.31
- PSMC6 log2FC (Gene 5706): 0.52
- PSMD2 log2FC (Gene 5708): 0.00374
- PSMD3 log2FC (Gene 5709): -0.0745
- PSMD4 log2FC (Gene 5710): -0.0364
- PSMD5 log2FC (Gene 5711): 0.19
- PSMD7 log2FC (Gene 5713): 0.00364
- PSMD9 log2FC (Gene 5715): -0.40
- PSMD12 log2FC (Gene 5718): -0.77
- PSMD13 log2FC (Gene 5719): -0.17
- PSME2 log2FC (Gene 5721): 0.04
- PTEN log2FC (Gene 5728): 0.96
- PTGS2 log2FC (Gene 5743): -0.0533
- PTPN3 log2FC (Gene 5774): -0.31
- PTPN6 log2FC (Gene 5777): 0.26
- PTPRC log2FC (Gene 5788): -0.0261
- PTPRK log2FC (Gene 5796): 0.72
- RAD1 log2FC (Gene 5810): -0.29
- RAD9A log2FC (Gene 5883): 0.68
- RAD17 log2FC (Gene 5884): 1.15
- RAD21 log2FC (Gene 5885): 0.83
- RAD51 log2FC (Gene 5888): -0.29
- RAD52 log2FC (Gene 5893): 0.14
- RAN log2FC (Gene 5901): -0.14
- RANBP1 log2FC (Gene 5902): -0.10
- RANBP2 log2FC (Gene 5903): 0.42
- RARA log2FC (Gene 5914): -0.31
- RASA1 log2FC (Gene 5921): 0.47
- RB1 log2FC (Gene 5925): 0.67
- RBL2 log2FC (Gene 5934): 0.41
- RFC1 log2FC (Gene 5981): 1.04
- RFC2 log2FC (Gene 5982): -0.10
- RFC5 log2FC (Gene 5985): 0.15
- RGS2 log2FC (Gene 5997): -2.43
- RHEB log2FC (Gene 6009): 0.40
- RNF2 log2FC (Gene 6045): -0.11
- RNF4 log2FC (Gene 6047): -0.48
- RPA3 log2FC (Gene 6119): 0.23
- RPS6KA2 log2FC (Gene 6196): 0.19
- RPS6KA3 log2FC (Gene 6197): 0.27
- RPS15A log2FC (Gene 6210): 0.48
- RPS27 log2FC (Gene 6232): 0.35
- RPS27A log2FC (Gene 6233): 0.45
- RRM1 log2FC (Gene 6240): 0.36
- RRM2 log2FC (Gene 6241): -0.81
- SETMAR log2FC (Gene 6419): -0.16
- SIAH2 log2FC (Gene 6478): -0.48
- SKP2 log2FC (Gene 6502): -1.28
- SMARCA4 log2FC (Gene 6597): -0.39
- SOX2 log2FC (Gene 6657): 0.23
- SOX9 log2FC (Gene 6662): -2.01
- SPAST log2FC (Gene 6683): 0.37
- SPTBN1 log2FC (Gene 6711): 0.11
- SRPK2 log2FC (Gene 6733): 0.78
- TRIM21 log2FC (Gene 6737): 0.02
